# Where two headings read alike, the source gives them in different places.
# Assay: Plasma concentration versus time of Compound I and metabolite Compound III in patients dosed QD or BID with Form B of Compound II plus fulvestrant
# Format: in vivo, human
# Details: human, plasma, oral; for concentration at 8 day: Day 8; for concentration at 15 day: Day 15; for concentration at 22 day: Day 22
# Excerpt: Patients were enrolled into 1 of 2 parallel, independently operating, dose-escalation dosing cohorts with Form B of Compound II administered continuously either once daily (QD) or twice daily (BID) with food with fixed-dose fulvestrant (intramuscularly every 14 days for the first three injections and then every 28 days). Pre- or perimenopausal patients also received goserelin for the duration of study treatment. A […] agonist was started at least 28 days before the first dose of Form B, and those patients who were taking another LHRH agonist were switched to goserelin on Day 1. Patients were split into […] cohorts providing once a day (QD) dosing of 200 mg, 300 mg, 400 mg, 500 mg, or 650 mg of Form B, or twice a day (BID) dosing of 100 mg, 150 mg, or 200 mg of Form B. The second dose in BID cohorts was not administered in the evening until at least 12 hours after the initial morning dose of Form B. The dosing cohorts for Form B of Compound II are provided in Table 1.
# Blood samples were collected at the following time points relative to the morning dose of Form B at Day 1 and at Day 29: pre-dose (0 hour) and 1, 2, 3, 4, 6, 8, 10, 12 (prior to the evening dose in the BID cohorts), and 24 (prior to the next day's morning dose) hours after dosing. A 5-minute time window was allowed for samples collected between the predose and 3 hours after Form B dosing. A 15-minute window was allowed for samples collected between 4 to 12 hours after Form B dosing. A 1-hour window was allowed for the sample collected 24 hours after Form B dosing. Blood samples for Compound I PK trough levels were collected pre-dose at Day 8, Day 15, and Day 22 prior to the morning administration of Compound I. Plasma concentrations of Compound I and its metabolite, Compound III, were measured using validated methods.
# Analysis of plasma concentration versus time data for calculation of standard pharmacokinetic (PK) parameters following oral administration was conducted using Phoenix WinNonlin version 6.3 using actual blood sampling times.
# [1] = 650 mg, Cohort 5, 650 mg QD of Form B, read-out: Trough Compound III Concentration, Max
# [2] = 650 mg, Cohort 5, 650 mg QD of Form B, read-out: Trough Compound III Concentration, Mean
# [3] = 650 mg, Cohort 5, 650 mg QD of Form B, read-out: Trough Compound III Concentration, Median
# [4] = 650 mg, Cohort 5, 650 mg QD of Form B, read-out: Trough Compound III Concentration, Min
smiles,measurement,setting,value
"O=C1NCC2(CCCCC2)n2c1cc1cnc(Nc3ccc(N4CCNCC4)cn3)nc12 [Compound III, 2′-((5-(piperazin-1-yl)pyridin-2-yl)amino)-7′,8′-dihydro-6′H-spiro[cyclohexane-1,9′-pyrazino[1′,2′:1,5]pyrrolo[2,3-d]pyrimidin]-6′-one]",concentration at 8 h,"500 mg, Cohort 4, 500 mg QD of Form B, Day 29, 8.0 h, read-out: Compound III Concentration, Mean",3.56 ng/mL
same,concentration at 8 h,"500 mg, Cohort 4, 500 mg QD of Form B, Day 29, 8.0 h, read-out: Compound III Concentration, Min",3.3 ng/mL
same,concentration at 10 h,"500 mg, Cohort 4, 500 mg QD of Form B, Day 29, 10.0 h, read-out: Compound III Concentration, Max",2.88 ng/mL
same,concentration at 10 h,"500 mg, Cohort 4, 500 mg QD of Form B, Day 29, 10.0 h, read-out: Compound III Concentration, Mean",2.66 ng/mL
same,concentration at 10 h,"500 mg, Cohort 4, 500 mg QD of Form B, Day 29, 10.0 h, read-out: Compound III Concentration, Min",2.52 ng/mL
same,concentration at 12 h,"500 mg, Cohort 4, 500 mg QD of Form B, Day 29, 12.0 h, read-out: Compound III Concentration, Max",2.55 ng/mL
same,concentration at 12 h,"500 mg, Cohort 4, 500 mg QD of Form B, Day 29, 12.0 h, read-out: Compound III Concentration, Mean",2.33 ng/mL
same,concentration at 12 h,"500 mg, Cohort 4, 500 mg QD of Form B, Day 29, 12.0 h, read-out: Compound III Concentration, Min",2.1 ng/mL
same,concentration at 24 h,"500 mg, Cohort 4, 500 mg QD of Form B, Day 29, […], read-out: Compound III Concentration, Mean",1.24 ng/mL
same,concentration at 24 h,"500 mg, Cohort 4, 500 mg QD of Form B, Day 29, […], read-out: Compound III Concentration, Min",0.959 ng/mL
same,concentration at 0 h,"650 mg, 650 mg QD of Form B, Day 1, 0.0 h, Mean, read-out: Compound III Concentration",0 ng/mL
same,concentration at 0 h,"650 mg, 650 mg QD of Form B, Day 1, 0.0 h, Median, read-out: Compound III Concentration",0 ng/mL
same,concentration at 1 h,"650 mg, 650 mg QD of Form B, Day 1, 1.0 h, Mean, read-out: Compound III Concentration",2.73 ng/mL
same,concentration at 1 h,"650 mg, 650 mg QD of Form B, Day 1, 1.0 h, Median, read-out: Compound III Concentration",2.77 ng/mL
same,concentration at 2 h,"650 mg, 650 mg QD of Form B, Day 1, 2.0 h, Mean, read-out: Compound III Concentration",4.01 ng/mL
same,concentration at 2 h,"650 mg, 650 mg QD of Form B, Day 1, 2.0 h, Median, read-out: Compound III Concentration",3.81 ng/mL
same,concentration at 3 h,"650 mg, 650 mg QD of Form B, Day 1, 3.0 h, Mean, read-out: Compound III Concentration",6.13 ng/mL
same,concentration at 3 h,"650 mg, 650 mg QD of Form B, Day 1, 3.0 h, Median, read-out: Compound III Concentration",6.43 ng/mL
same,concentration at 4 h,"650 mg, 650 mg QD of Form B, Day 1, 4.0 h, Mean, read-out: Compound III Concentration",8.35 ng/mL
same,concentration at 4 h,"650 mg, 650 mg QD of Form B, Day 1, 4.0 h, Median, read-out: Compound III Concentration",9.22 ng/mL
same,concentration at 6 h,"650 mg, 650 mg QD of Form B, Day 1, 6.0 h, Mean, read-out: Compound III Concentration",9.69 ng/mL
same,concentration at 6 h,"650 mg, 650 mg QD of Form B, Day 1, 6.0 h, Median, read-out: Compound III Concentration",10 ng/mL
same,concentration at 8 h,"650 mg, 650 mg QD of Form B, Day 1, 8.0 h, Mean, read-out: Compound III Concentration",10.1 ng/mL
same,concentration at 8 h,"650 mg, 650 mg QD of Form B, Day 1, 8.0 h, Median, read-out: Compound III Concentration",8.66 ng/mL
same,concentration at 10 h,"650 mg, 650 mg QD of Form B, Day 1, 10.0 h, Mean, read-out: Compound III Concentration",6.63 ng/mL
same,concentration at 10 h,"650 mg, 650 mg QD of Form B, Day 1, 10.0 h, Median, read-out: Compound III Concentration",5.32 ng/mL
same,concentration at 12 h,"650 mg, 650 mg QD of Form B, Day 1, 12.0 h, Mean, read-out: Compound III Concentration",5.12 ng/mL
same,concentration at 12 h,"650 mg, 650 mg QD of Form B, Day 1, 12.0 h, Median, read-out: Compound III Concentration",4.41 ng/mL
same,concentration at 24 h,"650 mg, 650 mg QD of Form B, Day 1, […], Mean, read-out: Compound III Concentration",2.17 ng/mL
same,concentration at 24 h,"650 mg, 650 mg QD of Form B, Day 1, […], Median, read-out: Compound III Concentration",1.51 ng/mL
same,concentration at 8 day,[1],4.96 ng/mL
same,concentration at 8 day,[2],3.55 ng/mL
same,concentration at 8 day,[3],3.79 ng/mL
same,concentration at 8 day,[4],1.65 ng/mL
same,concentration at 15 day,[1],3.6 ng/mL
same,concentration at 15 day,[2],3.13 ng/mL
same,concentration at 15 day,[3],3.52 ng/mL
same,concentration at 15 day,[4],2.28 ng/mL
same,concentration at 22 day,[1],5.65 ng/mL
same,concentration at 22 day,[2],3.7 ng/mL
same,concentration at 22 day,[3],3.11 ng/mL
same,concentration at 22 day,[4],2.34 ng/mL
same,concentration at 0 h,"650 mg, Cohort 5, 650 mg QD of Form B, Day 29, 0.0 h, read-out: Compound III Concentration, Median",2.06 ng/mL
same,concentration at 0 h,"650 mg, Cohort 5, 650 mg QD of Form B, Day 29, 0.0 h, read-out: Compound III Concentration, Min",1.3 ng/mL
same,concentration at 1 h,"650 mg, Cohort 5, 650 mg QD of Form B, Day 29, 1.0 h, read-out: Compound III Concentration, Median",2.49 ng/mL
same,concentration at 1 h,"650 mg, Cohort 5, 650 mg QD of Form B, Day 29, 1.0 h, read-out: Compound III Concentration, Min",1.28 ng/mL
same,concentration at 2 h,"650 mg, Cohort 5, 650 mg QD of Form B, Day 29, 2.0 h, read-out: Compound III Concentration, Median",3.14 ng/mL
same,concentration at 2 h,"650 mg, Cohort 5, 650 mg QD of Form B, Day 29, 2.0 h, read-out: Compound III Concentration, Min",1.85 ng/mL
same,concentration at 3 h,"650 mg, Cohort 5, 650 mg QD of Form B, Day 29, 3.0 h, read-out: Compound III Concentration, Median",3.89 ng/mL
same,concentration at 3 h,"650 mg, Cohort 5, 650 mg QD of Form B, Day 29, 3.0 h, read-out: Compound III Concentration, Min",2.61 ng/mL
same,concentration at 4 h,"650 mg, Cohort 5, 650 mg QD of Form B, Day 29, 4.0 h, read-out: Compound III Concentration, Median",4.78 ng/mL
same,concentration at 4 h,"650 mg, Cohort 5, 650 mg QD of Form B, Day 29, 4.0 h, read-out: Compound III Concentration, Min",3.42 ng/mL
same,concentration at 6 h,"650 mg, Cohort 5, 650 mg QD of Form B, Day 29, 6.0 h, read-out: Compound III Concentration, Median",7.57 ng/mL
same,concentration at 6 h,"650 mg, Cohort 5, 650 mg QD of Form B, Day 29, 6.0 h, read-out: Compound III Concentration, Min",5.3 ng/mL
same,concentration at 8 h,"650 mg, Cohort 5, 650 mg QD of Form B, Day 29, 8.0 h, read-out: Compound III Concentration, Median",8.64 ng/mL
same,concentration at 8 h,"650 mg, Cohort 5, 650 mg QD of Form B, Day 29, 8.0 h, read-out: Compound III Concentration, Min",5.18 ng/mL
same,concentration at 10 h,"650 mg, Cohort 5, 650 mg QD of Form B, Day 29, 10.0 h, read-out: Compound III Concentration, Min",4.64 ng/mL
same,concentration at 12 h,"650 mg, Cohort 5, 650 mg QD of Form B, Day 29, 12.0 h, read-out: Compound III Concentration, Min",3.42 ng/mL
same,concentration at 24 h,"650 mg, Cohort 5, 650 mg QD of Form B, Day 29, […], read-out: Compound III Concentration, Median",3.04 ng/mL
same,concentration at 24 h,"650 mg, Cohort 5, 650 mg QD of Form B, Day 29, […], read-out: Compound III Concentration, Min",2.49 ng/mL

# From US11357779B2 (G1 Therapeutics, Inc., priority 2018, dated 2022)
